Data taken from patent US5710018A, “Mammalian influx peptide transporter” (Eli Lilly and Company, priority 1995, dated 1998).
Where a SMILES comes first, the peptide text is derived from it.

Key:
[1] = target: T1, influx peptide transporter (Homo sapiens, UniProt Q12864); settings: Clone 9; 50 mM Gly-L-Pro
T1 sequence (Q12864 23-832 K115E/E734D/E739A): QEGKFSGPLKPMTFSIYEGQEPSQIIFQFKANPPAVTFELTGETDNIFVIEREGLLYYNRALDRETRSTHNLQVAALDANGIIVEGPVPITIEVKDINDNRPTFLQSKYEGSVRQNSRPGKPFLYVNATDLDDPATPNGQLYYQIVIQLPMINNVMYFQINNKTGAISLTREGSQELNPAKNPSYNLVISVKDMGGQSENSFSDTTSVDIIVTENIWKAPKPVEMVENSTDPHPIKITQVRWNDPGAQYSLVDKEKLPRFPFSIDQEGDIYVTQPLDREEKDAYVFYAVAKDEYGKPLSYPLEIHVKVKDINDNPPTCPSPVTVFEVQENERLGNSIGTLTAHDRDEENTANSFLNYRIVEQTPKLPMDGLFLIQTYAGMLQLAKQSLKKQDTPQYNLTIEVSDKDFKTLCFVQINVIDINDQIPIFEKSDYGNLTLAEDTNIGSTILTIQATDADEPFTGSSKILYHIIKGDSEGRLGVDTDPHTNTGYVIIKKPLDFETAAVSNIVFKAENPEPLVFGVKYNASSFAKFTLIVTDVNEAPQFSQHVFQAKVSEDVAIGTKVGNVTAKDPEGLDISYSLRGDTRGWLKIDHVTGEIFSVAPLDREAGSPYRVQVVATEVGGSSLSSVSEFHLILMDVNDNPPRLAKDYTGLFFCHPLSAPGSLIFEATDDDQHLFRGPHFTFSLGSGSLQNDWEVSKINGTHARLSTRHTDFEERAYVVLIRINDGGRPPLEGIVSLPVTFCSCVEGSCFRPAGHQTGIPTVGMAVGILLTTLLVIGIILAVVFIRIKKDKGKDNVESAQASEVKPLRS
Description: Chinese hamster ovary cells (CHO-K1, ATCC CCL 61) were transfected with plasmid pPSJ179 using a calcium precipitation protocol described in the Stratagene mammalian transfection kit (Stratagene Catalog #200285). […] The calcium precipitation protocol transfection method was carried out as follows. Subconfluent CHO-K1 cells (100 mm culture dish, 1-day post plating) were incubated for 20 minutes at 37° C. with 20 μg of a calcium-precipitated DNA sample. The DNA sample was either plasmid pPSJ179 or, as control, plasmid pRc/RSV. Subsequently, the cells were grown for 3 days in F12 medium containing 10% fetal bovine serum (Hyclone Laboratories Inc., Logan, Utah 84321). Afterwards, the medium was replaced with growth medium containing the selection agent, G-418 sulfate at 300 μg/ml (Gibco, Grand Island, N.Y.) and cells were grown in a 3% CO2 incubator at 37° C. for 13 days. Colonies which were selected for further study were grown for selected time periods in the selection medium at 37° C. in a 5% CO2 incubator. Transfectants were evaluated for expression of the influx peptide transporter using an enzyme linked immunosorbent assay (ELISA) and monoclonal antibody reactive with the influx peptide transporter.
The transfected CHO-K1 cells (~0.5 to 1×10^5 cells per well) were grown for 3 days in a Costar 24-well plate as described above. […]

control CHO-K1 cells = test: [14C]cephalexin uptake by control CHO-K1 cells transfected with plasmid pRc/RSV; assay type: in vitro ADME, Chinese hamster; settings: Gly-L-Pro coincubation

NCC(=O)N1CCC[C@H]1C(=O)O [Gly-L-Pro] (H-Gly-Pro-OH)
inhibition of uptake of 1 mM cephalexin [1]: inhibited
inhibition of transport of 1 mM [14C]cephalexin (control CHO-K1 cells): not inhibited
